# Experimental data from ChEMBL document CHEMBL4837249, “Discovery of Potent Antiallergic Agents Based on an o-Aminopyridinyl Alkynyl Scaffold” (J Med Chem, 2021).
# pIC50: −log10 of the molar value.
# Assays:
# [1] = target: T1, Tyrosine-protein kinase TXK (Homo sapiens) (UniProt P42681); assay: Inhibition of human recombinant […] (256 to end) at 50 nM by radiometric scintillation counting analysis relative to control
# T1 sequence (whole entry): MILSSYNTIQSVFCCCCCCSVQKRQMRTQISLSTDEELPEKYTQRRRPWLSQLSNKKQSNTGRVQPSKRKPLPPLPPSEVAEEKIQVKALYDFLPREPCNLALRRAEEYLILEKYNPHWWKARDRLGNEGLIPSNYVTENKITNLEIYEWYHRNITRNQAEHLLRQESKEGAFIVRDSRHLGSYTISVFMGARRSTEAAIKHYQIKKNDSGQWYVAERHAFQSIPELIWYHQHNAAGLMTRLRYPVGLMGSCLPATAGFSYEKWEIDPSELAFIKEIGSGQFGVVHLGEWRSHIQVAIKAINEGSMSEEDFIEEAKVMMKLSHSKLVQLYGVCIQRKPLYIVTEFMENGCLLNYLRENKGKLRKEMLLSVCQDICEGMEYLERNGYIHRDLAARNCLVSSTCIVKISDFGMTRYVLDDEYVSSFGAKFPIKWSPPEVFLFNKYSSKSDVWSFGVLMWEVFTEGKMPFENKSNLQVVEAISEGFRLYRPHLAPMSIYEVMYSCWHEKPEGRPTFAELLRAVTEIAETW
# [2] = target: T1, Tyrosine-protein kinase TXK (Homo sapiens); assay: Inhibition of human recombinant Txk (256 to end) at 500 nM by radiometric scintillation counting analysis relative to control
# [3] = target: Platelet-derived growth factor receptor beta (Homo sapiens) (UniProt P09619); assay: Inhibition of human recombinant PDGFRbeta (557 to end) at 5 nM by radiometric scintillation counting analysis relative to control
# Chain of Platelet-derived growth factor receptor beta (Homo sapiens) (P09619 whole entry): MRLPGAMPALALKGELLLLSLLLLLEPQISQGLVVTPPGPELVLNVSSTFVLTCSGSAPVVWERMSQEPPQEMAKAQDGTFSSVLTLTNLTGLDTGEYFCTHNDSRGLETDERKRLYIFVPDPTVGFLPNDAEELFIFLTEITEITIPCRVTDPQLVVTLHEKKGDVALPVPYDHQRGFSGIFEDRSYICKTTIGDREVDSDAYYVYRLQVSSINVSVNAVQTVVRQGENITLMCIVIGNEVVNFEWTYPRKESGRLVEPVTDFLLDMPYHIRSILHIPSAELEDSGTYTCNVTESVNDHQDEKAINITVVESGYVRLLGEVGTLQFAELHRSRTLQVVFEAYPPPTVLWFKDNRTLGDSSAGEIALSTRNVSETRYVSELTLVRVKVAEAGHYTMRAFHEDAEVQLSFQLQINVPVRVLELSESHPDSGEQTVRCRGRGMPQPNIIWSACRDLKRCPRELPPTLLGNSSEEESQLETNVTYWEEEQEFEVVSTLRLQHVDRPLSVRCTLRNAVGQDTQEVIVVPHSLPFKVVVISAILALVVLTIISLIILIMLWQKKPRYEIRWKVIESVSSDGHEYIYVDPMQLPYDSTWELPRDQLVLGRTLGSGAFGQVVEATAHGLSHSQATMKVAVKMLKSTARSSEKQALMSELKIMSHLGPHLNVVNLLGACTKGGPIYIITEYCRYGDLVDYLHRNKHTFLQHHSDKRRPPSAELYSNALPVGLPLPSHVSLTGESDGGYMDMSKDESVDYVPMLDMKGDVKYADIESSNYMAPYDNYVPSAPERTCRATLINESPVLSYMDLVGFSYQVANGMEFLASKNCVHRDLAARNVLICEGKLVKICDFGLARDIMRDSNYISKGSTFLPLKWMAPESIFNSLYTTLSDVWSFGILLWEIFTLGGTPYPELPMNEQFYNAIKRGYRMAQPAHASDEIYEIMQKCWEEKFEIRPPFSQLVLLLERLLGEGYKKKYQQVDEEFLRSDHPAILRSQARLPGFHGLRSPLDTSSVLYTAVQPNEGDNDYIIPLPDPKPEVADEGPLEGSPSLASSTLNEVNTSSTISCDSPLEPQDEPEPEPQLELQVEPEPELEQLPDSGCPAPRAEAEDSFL
# [4] = target: Tyrosine-protein kinase Fyn (Homo sapiens, UniProt P06241); assay: Inhibition of human recombinant Fyn (218 to end) at 50 nM incubated for 15 mins relative to control
# Chain of Tyrosine-protein kinase Fyn (P06241 2-537 limits assumed): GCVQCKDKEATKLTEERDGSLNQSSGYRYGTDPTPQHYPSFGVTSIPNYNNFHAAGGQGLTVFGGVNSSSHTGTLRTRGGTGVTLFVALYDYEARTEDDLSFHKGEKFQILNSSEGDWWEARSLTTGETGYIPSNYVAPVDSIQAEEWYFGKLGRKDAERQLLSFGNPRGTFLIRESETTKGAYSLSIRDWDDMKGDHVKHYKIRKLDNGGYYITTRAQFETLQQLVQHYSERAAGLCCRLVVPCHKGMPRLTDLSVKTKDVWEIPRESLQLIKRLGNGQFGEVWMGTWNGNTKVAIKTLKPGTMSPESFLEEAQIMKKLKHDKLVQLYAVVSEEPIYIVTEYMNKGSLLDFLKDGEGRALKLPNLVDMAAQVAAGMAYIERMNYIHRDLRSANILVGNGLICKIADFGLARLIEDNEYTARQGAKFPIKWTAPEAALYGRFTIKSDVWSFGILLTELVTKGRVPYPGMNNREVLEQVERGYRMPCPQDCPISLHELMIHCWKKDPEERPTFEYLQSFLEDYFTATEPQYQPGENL
# [5] = target: T2, Inhibitor of nuclear factor kappa-B kinase subunit alpha (Homo sapiens) (UniProt O15111); assay: Inhibition of human full length recombinant IKKalpha at 500 nM by radiometric scintillation counting analysis relative to control
# T2 sequence (whole entry): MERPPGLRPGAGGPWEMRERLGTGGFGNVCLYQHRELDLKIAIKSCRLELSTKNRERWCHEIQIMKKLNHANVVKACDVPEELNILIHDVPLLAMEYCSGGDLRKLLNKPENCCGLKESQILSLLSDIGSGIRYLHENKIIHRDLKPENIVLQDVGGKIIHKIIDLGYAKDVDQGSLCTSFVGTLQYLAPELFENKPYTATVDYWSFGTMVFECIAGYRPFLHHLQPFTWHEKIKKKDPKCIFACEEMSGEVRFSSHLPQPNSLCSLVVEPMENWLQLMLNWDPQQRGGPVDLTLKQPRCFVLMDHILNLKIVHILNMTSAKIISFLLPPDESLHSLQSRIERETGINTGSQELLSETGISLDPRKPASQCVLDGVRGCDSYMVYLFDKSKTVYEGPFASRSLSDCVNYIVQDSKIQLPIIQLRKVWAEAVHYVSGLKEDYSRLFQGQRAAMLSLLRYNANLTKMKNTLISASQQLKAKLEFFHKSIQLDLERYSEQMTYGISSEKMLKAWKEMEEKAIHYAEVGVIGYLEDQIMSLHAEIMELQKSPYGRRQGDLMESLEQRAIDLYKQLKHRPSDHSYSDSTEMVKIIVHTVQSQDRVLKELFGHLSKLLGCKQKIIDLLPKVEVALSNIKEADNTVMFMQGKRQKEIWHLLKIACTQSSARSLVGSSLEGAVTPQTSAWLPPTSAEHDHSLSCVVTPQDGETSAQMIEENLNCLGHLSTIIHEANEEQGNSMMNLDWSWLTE
# [6] = target: Tyrosine-protein kinase CSK (Homo sapiens, UniProt P41240); assay: Inhibition of human full length recombinant CSK at 50 nM by radiometric scintillation counting analysis relative to control
# Chain of Tyrosine-protein kinase CSK (P41240 2-450 limits assumed): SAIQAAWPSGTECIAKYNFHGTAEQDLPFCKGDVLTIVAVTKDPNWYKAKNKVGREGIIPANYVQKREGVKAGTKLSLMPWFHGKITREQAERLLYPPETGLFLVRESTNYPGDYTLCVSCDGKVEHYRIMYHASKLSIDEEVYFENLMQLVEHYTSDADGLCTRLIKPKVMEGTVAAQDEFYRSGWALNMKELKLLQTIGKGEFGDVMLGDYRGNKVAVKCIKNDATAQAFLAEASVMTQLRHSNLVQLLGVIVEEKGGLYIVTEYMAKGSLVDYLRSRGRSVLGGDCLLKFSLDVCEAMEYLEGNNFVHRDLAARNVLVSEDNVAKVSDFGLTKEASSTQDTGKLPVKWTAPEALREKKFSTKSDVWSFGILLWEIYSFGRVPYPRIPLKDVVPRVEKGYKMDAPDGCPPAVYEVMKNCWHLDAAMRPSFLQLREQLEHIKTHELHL
# [7] = target: T3, Tyrosine-protein kinase ITK/TSK (Homo sapiens) (UniProt Q08881); assay: Inhibition of human recombinant ITK (352 to 617) at 500 nM by radiometric scintillation counting analysis relative to control
# T3 sequence (whole entry): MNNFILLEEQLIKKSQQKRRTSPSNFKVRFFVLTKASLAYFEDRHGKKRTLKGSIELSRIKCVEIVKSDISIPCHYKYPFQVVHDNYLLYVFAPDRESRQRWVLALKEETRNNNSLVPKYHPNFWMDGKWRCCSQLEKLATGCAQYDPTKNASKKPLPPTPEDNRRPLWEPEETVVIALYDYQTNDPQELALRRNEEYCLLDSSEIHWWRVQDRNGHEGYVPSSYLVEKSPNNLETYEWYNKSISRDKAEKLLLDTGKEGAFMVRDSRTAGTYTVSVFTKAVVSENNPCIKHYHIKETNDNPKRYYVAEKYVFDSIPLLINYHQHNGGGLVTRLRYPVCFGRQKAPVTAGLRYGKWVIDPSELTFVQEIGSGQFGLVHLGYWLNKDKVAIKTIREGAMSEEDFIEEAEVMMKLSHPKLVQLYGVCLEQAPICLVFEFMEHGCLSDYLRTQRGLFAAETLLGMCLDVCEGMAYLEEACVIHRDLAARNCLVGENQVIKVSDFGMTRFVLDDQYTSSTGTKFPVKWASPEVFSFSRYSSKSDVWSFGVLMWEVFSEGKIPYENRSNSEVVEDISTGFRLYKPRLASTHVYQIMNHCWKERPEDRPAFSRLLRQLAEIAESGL
# [8] = target: Platelet-derived growth factor receptor alpha (Homo sapiens) (UniProt P16234); assay: Inhibition of human recombinant PDGFRalpha (550 to end) at 5 nM by radiometric scintillation counting analysis relative to control
# [9] = target: Tyrosine-protein kinase Lck (Homo sapiens, UniProt P06239); assay: Inhibition of human full length recombinant LCK at 500 nM by radiometric scintillation counting analysis relative to control
# Chain of Tyrosine-protein kinase Lck (P06239 2-509 limits assumed): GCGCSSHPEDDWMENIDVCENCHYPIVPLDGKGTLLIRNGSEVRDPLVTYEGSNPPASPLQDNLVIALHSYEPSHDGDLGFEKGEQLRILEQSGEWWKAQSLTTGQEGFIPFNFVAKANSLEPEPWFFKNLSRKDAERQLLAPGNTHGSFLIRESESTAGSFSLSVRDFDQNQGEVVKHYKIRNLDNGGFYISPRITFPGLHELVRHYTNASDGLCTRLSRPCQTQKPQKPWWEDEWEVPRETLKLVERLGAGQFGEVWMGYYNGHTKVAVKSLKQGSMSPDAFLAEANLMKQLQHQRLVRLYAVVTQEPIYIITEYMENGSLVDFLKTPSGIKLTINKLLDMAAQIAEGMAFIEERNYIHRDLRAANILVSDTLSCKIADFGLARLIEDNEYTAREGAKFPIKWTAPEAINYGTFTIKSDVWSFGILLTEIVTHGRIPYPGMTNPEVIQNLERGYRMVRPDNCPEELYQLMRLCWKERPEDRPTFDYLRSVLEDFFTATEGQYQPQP
# [10] = target: Tyrosine-protein kinase JAK1 (Homo sapiens) (UniProt P23458); assay: Inhibition of human recombinant JAK1 at 50 nM radiometric scintillation counting analysis relative to control
# Chain of Tyrosine-protein kinase JAK1 (Homo sapiens) (P23458 whole entry): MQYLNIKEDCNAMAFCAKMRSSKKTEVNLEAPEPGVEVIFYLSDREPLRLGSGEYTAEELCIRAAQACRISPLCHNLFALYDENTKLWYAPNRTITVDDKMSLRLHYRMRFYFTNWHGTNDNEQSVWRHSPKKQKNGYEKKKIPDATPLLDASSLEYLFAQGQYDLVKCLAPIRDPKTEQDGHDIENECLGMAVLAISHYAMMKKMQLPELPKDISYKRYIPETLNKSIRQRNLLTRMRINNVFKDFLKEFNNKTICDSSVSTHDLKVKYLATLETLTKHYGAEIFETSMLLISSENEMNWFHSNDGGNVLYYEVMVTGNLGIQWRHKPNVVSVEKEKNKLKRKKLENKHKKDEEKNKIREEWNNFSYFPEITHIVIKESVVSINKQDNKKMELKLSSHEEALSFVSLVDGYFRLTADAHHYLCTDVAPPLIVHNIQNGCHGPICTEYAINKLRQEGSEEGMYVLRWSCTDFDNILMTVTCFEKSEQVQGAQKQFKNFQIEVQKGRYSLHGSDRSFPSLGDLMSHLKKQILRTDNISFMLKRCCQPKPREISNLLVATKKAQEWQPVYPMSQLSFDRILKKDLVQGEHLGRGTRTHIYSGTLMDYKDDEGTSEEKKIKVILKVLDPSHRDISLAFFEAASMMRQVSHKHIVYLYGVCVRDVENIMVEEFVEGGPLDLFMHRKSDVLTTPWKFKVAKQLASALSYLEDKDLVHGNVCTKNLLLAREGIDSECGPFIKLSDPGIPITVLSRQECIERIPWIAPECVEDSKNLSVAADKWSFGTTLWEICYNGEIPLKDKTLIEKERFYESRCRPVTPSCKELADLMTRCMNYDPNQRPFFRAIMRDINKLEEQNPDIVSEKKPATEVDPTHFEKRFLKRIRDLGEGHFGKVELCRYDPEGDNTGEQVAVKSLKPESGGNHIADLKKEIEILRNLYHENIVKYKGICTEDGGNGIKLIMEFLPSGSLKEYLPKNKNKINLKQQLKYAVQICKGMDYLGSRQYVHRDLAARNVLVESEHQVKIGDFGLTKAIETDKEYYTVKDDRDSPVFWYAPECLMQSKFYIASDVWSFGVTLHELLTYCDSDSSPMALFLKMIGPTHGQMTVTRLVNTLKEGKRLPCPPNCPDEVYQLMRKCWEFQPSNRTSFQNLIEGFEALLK
# [11] = target: Tyrosine-protein kinase Blk (Homo sapiens, UniProt P51451); assay: Inhibition of human full length recombinant BLK at 50 nM by radiometric scintillation counting analysis relative to control
# Chain of Tyrosine-protein kinase Blk (P51451 2-505 limits assumed): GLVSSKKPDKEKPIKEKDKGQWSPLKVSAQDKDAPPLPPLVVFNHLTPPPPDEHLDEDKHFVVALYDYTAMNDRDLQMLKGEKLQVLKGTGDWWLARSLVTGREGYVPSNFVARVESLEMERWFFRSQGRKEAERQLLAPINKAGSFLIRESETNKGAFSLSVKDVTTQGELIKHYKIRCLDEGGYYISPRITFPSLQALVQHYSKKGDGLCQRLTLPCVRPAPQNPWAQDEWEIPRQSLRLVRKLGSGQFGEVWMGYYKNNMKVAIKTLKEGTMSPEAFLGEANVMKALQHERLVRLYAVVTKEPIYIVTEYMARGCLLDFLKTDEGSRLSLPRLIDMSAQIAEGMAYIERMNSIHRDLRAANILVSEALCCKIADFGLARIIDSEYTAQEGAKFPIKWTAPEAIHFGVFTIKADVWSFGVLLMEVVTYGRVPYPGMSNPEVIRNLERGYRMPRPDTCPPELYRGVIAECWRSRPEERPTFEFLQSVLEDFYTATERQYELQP
# [12] = target: T1, Tyrosine-protein kinase TXK (Homo sapiens); assay: Inhibition of human recombinant […] (256 to end) at 5 nM by radiometric scintillation counting analysis relative to control
# [13] = system: RBL-2H3; assay: Antiallergic activity against anti-DNP-IgE sensitized rat RBL-2H3 cells assessed as […] of degranulation by measuring beta-hexosaminidase release using P-nitrophenyl-N-acetyl-D-glucosamide as substrate measured after 1 hr by microplate reader; type: functional, cell-based; conditions: RBL-2H3, 1 h
# [14] = target: Tyrosine-protein kinase Srms (Homo sapiens, UniProt Q9H3Y6); assay: Inhibition of human SRMS at 50 nM by radiometric scintillation counting analysis relative to control
# Chain of Tyrosine-protein kinase Srms (Q9H3Y6 whole entry): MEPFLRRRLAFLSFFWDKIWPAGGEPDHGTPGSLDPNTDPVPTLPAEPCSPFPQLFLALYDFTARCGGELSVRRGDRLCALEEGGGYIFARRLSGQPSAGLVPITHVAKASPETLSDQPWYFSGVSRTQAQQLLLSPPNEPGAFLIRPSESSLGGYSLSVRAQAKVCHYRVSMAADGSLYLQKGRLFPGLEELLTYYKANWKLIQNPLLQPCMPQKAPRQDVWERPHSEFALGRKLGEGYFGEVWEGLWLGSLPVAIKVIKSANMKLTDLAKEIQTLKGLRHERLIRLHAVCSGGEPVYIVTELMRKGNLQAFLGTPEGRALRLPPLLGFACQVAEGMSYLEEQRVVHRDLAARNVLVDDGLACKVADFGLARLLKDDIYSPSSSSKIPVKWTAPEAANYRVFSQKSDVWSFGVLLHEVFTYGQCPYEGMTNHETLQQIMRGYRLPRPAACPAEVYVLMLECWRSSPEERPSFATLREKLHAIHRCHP
# [15] = target: Protein-tyrosine kinase 6 (Homo sapiens) (UniProt Q13882); assay: Inhibition of human recombinant BRK (174 to 734) at 50 nM by radiometric scintillation counting analysis relative to control
compound,measurement,setting,value
Cc1ccc(C(=O)Nc2cc(C(F)(F)F)cc(C(F)(F)F)c2)cc1C#Cc1cc(-c2cnn(C)c2)cnc1N,inhibition,[1],60%
same,inhibition,[2],86%
same,inhibition,[3],18%
same,inhibition,[4],55%
same,inhibition,[5],12%
same,inhibition,[6],34%
same,inhibition,[7],2%
same,inhibition,[8],1%
same,inhibition,[9],77%
same,inhibition,[10],37%
same,inhibition,[11],56%
same,inhibition,[12],17%
same,pIC50,[13],8.03
same,inhibition,[14],51%
same,inhibition,[15],1%
Cc1ccc(C(=O)Nc2ccc(Cl)cc2Cl)cc1C#Cc1cc(-c2cnn(C)c2)cnc1N,inhibition,[1],5%
same,inhibition,[2],-1%
same,inhibition,[3],12%
same,inhibition,[4],43%
same,inhibition,[5],2%
same,inhibition,[6],28%
same,inhibition,[7],19%
same,inhibition,[8],-6%
same,inhibition,[9],92%
same,inhibition,[10],-6%
same,inhibition,[11],13%
same,inhibition,[12],2%
same,pIC50,[13],< 6.00
same,inhibition,[14],19%
same,inhibition,[15],39%
Cc1ccc(C(=O)Nc2ccc(OC(F)(F)F)cc2)cc1C#Cc1cc(-c2cnn(C)c2)cnc1N,inhibition,[1],18%
same,inhibition,[2],42%
same,inhibition,[3],1%
same,inhibition,[4],81%
same,inhibition,[5],0%
same,inhibition,[6],4%
same,inhibition,[7],-4%
same,inhibition,[8],7%
same,inhibition,[9],98%
same,inhibition,[10],8%
same,inhibition,[11],69%
same,inhibition,[12],12%
same,pIC50,[13],8.43
same,inhibition,[14],22%
same,inhibition,[15],52%
